Tests used:
Type in all cases: in vivo
[1] = system: Arabidopsis thaliana T1 plants; assay: flumioxazin tolerance of transgenic Arabidopsis thaliana T1 plants (spray, grade of pesticide damage); details: for The grade of pesticide damage/plant: grade 0 / The grade of pesticide damage/plant: grade 1 / The grade of pesticide damage/plant: grade 2 / The grade of pesticide damage/plant: grade 3: 7 DAT, number of plants of 24 per genotype, grades
Source text: (§1) The transformed Arabidopsis thaliana T1 plants were initially selected using glufosinate herbicide. The Arabidopsis thaliana T1 plants (PPO1A) into which the PPO1A nucleotide sequence was introduced, the Arabidopsis thaliana T1 plants (PPO2A) into which the PPO2A nucleotide sequence was introduced, the Arabidopsis thaliana T1 plants (PPO3A) into which the PPO3A nucleotide sequence was introduced, the Arabidopsis thaliana T1 plants (PPO4A) into which the PPO4A nucleotide sequence was introduced, the Arabidopsis thaliana T1 plants (PPO5A) into which the PPO5A nucleotide sequence was introduced, the Arabidopsis thaliana T1 plants (PPO6A) into which the PPO6A nucleotide sequence was introduced, the Arabidopsis thaliana T1 plants (PPO7A) into which the PPO7A nucleotide sequence was introduced, the Arabidopsis thaliana T1 plants (PPO8A) into which the PPO8A nucleotide sequence was introduced, the Arabidopsis thaliana T1 plants (PPO9A) into which the PPO9A nucleotide sequence was introduced, the Arabidopsis thaliana T1 plants (PPO10A) into which the […] nucleotide sequence was introduced, the Arabidopsis thaliana T1 plants (PPO11A) into which the PPO11A nucleotide sequence was introduced, the Arabidopsis thaliana T1 plants (PPO12A) into which the PPO12A nucleotide sequence was introduced, the Arabidopsis thaliana T1 plants (PPO13A) into which the PPO13A nucleotide sequence was introduced, the Arabidopsis thaliana T1 plants (PPO14A) into which the PPO14A nucleotide sequence was introduced, the Arabidopsis thaliana T1 plants (PPO-ATA) into which the PPO-ATA nucleotide sequence was introduced, the Arabidopsis thaliana T1 plants (PPO-APA) into which the PPO-APA nucleotide sequence was introduced, the Arabidopsis thaliana T1 plants (control vector) into which the control vector was introduced, and the wild-type Arabidopsis thaliana plants (CK) (with 24 plants being included in each genotype) (18 days after sowing) were sprayed with oxyfluorfen at three concentrations (180 g ai/ha (one-fold field concentration, 1×), 720 g ai/ha (four-fold field concentration, 4×), and 0 g ai/ha (water, 0×)), saflufenacil at three concentrations (25 g ai/ha (one-fold field concentration, 1×), 100 g ai/ha (four-fold field concentration, 4×), and 0 g ai/ha (water, 0×)), flumioxazin at three concentrations (60 g ai/ha (one-fold field concentration, 1×), 240 g ai/ha (four-fold field concentration, 4×), and 0 g ai/ha (water, 0×), and sulfentrazone at three concentrations (450 g ai/ha (one-fold field concentration, 1×), 900 g ai/ha (two-fold field concentration, 2×), and 0 g ai/ha (water, 0×) to determine the tolerance of Arabidopsis thaliana to the herbicides. After 7 days of spraying (7 DAT), the damage level of each plant caused by the herbicide was evaluated according to the average of the damage levels (%) of plants (the average of the damage levels (%) of plants=the injured leaf area/the total leaf area×[…]), i.e., the grade of pesticide damage: grade 0 means that the growth status of plants is essentially consistent with those sprayed with the blank solvent (water); grade 1 means that the average of the damage levels of plants is less than 10%; grade 2 means that the average of the damage levels of plants is greater than […]; and grade 3 means that the average of the damage levels of plants is 100%. The plants having a growth status falling within grades 0 and 1 are classified as highly resistant plants; those having a growth status falling within grade 2 are classified as poorly resistant plants; and those having a growth status falling within grade 3 are classified as non-resistant plants.

[2] = system: Arabidopsis thaliana T1 plants; assay: oxyfluorfen tolerance of transgenic Arabidopsis thaliana T1 plants (spray, grade of pesticide damage); details: for The grade of pesticide damage/plant: grade 0 / The grade of pesticide damage/plant: grade 1 / The grade of pesticide damage/plant: grade 2 / The grade of pesticide damage/plant: grade 3: 7 DAT, number of plants of 24 per genotype, grades
Source text: as §1

[3] = system: Arabidopsis thaliana T1 plants; assay: saflufenacil tolerance of transgenic Arabidopsis thaliana T1 plants (spray, grade of pesticide damage); details: for The grade of pesticide damage/plant: grade 0 / The grade of pesticide damage/plant: grade 1 / The grade of pesticide damage/plant: grade 2 / The grade of pesticide damage/plant: grade 3: 7 DAT, number of plants of 24 per genotype, grades
Source text: as §1

[4] = system: Arabidopsis thaliana T1 plants; assay: sulfentrazone tolerance of transgenic Arabidopsis thaliana T1 plants (spray, grade of pesticide damage); details: for The grade of pesticide: grade 0 / The grade of pesticide: grade 1 / The grade of pesticide: grade 2 / The grade of pesticide: grade 3: 7 DAT, number of plants of 24 per genotype, grades
Source text: as §1

C#CCN1C(=O)COc2cc(F)c(N3C(=O)C4=C(CCCC4)C3=O)cc21 [flumioxazin, 2-[7-fluoro-3,4-dihydro-3-oxo-4-(2-propynyl)-2H-1,4-benzoxazin-6-yl]-4,5,6,7-tetrahydro-1H-isoindole-1,3(2H)-dione, reference compound]
effective dose distinguishing sensitive plants from plants having an average level of resistance ([1]; for Arabidopsis thaliana, flumioxazin herbicide): 60 g ai/ha

CCOc1cc(Oc2ccc(C(F)(F)F)cc2Cl)ccc1[N+](=O)[O-] [oxyfluorfen, 2-chloro-1-(3-ethoxy-4-nitrophenoxy)-4-trifluoromethylbenzene, reference compound]
effective dose distinguishing sensitive plants from plants having an average level of resistance ([2]; for Arabidopsis thaliana, oxyfluorfen herbicide): 180 g ai/ha

CC(C)N(C)S(=O)(=O)NC(=O)c1cc(-n2c(=O)cc(C(F)(F)F)n(C)c2=O)c(F)cc1Cl [saflufenacil, N′-[2-chloro-4-fluoro-5-(3-methyl-2,6-dioxo-4-(trifluoromethyl)-3,6-dihydro-1(2H)-pyrimidine)benzoyl]-N-isopropyl-N-methylsulfamide, reference compound]
effective dose distinguishing sensitive plants from plants having an average level of resistance ([3]; for Arabidopsis thaliana, saflufenacil herbicide): 25 g ai/ha

Cc1nn(-c2cc(NS(C)(=O)=O)c(Cl)cc2Cl)c(=O)n1C(F)F [sulfentrazone, N-(2,4-dichloro-5-(4-difluoromethyl-4,5-dihydro-3-methyl-5-oxo-1H-1,2,4-triazole-1-yl)phenyl)methanesulfonamide, reference compound]
effective dose distinguishing sensitive plants from plants having an average level of resistance ([4]; for Arabidopsis thaliana, sulfentrazone herbicide): 450 g ai/ha

PPO-ATA: nucleotide sequence encoding Arabidopsis protoporphyrinogen oxidase PPO-AT (SEQ ID NO:46), Arabidopsis thaliana/soybean common codon usage bias [reference compound]
The grade of pesticide: grade 0 ([4]; sulfentrazone 450 g ai/ha (1×)): 0
The grade of pesticide: grade 1 ([4]; sulfentrazone 450 g ai/ha (1×)): 0
The grade of pesticide: grade 2 ([4]; sulfentrazone 450 g ai/ha (1×)): 0
The grade of pesticide: grade 3 ([4]; sulfentrazone 450 g ai/ha (1×)): 24
The grade of pesticide: grade 0 ([4]; sulfentrazone 900 g ai/ha (2×)): 0
The grade of pesticide: grade 1 ([4]; sulfentrazone 900 g ai/ha (2×)): 0
The grade of pesticide: grade 2 ([4]; sulfentrazone 900 g ai/ha (2×)): 0
The grade of pesticide: grade 3 ([4]; sulfentrazone 900 g ai/ha (2×)): 24
tolerance to sulfentrazone ([4]; sulfentrazone at different concentrations (450 and 900 g ai/ha)): no tolerance
The grade of pesticide damage/plant: grade 0 ([3]; saflufenacil 25 g ai/ha (1×)): 0 plant
The grade of pesticide damage/plant: grade 1 ([3]; saflufenacil 25 g ai/ha (1×)): 0 plant
The grade of pesticide damage/plant: grade 2 ([3]; saflufenacil 25 g ai/ha (1×)): 0 plant
The grade of pesticide damage/plant: grade 3 ([3]; saflufenacil 25 g ai/ha (1×)): 24 plant
The grade of pesticide damage/plant: grade 0 ([3]; saflufenacil 100 g ai/ha (4×)): 0 plant
The grade of pesticide damage/plant: grade 1 ([3]; saflufenacil 100 g ai/ha (4×)): 0 plant
The grade of pesticide damage/plant: grade 2 ([3]; saflufenacil 100 g ai/ha (4×)): 0 plant
The grade of pesticide damage/plant: grade 3 ([3]; saflufenacil 100 g ai/ha (4×)): 24 plant
tolerance to saflufenacil ([3]; saflufenacil at four-fold field concentration (100 g ai/ha)): no tolerance
tolerance to saflufenacil ([3]; saflufenacil at one-fold field concentration (25 g ai/ha)): no tolerance
The grade of pesticide damage/plant: grade 0 ([1]; flumioxazin 60 g ai/ha (1×)): 0 plant
The grade of pesticide damage/plant: grade 1 ([1]; flumioxazin 60 g ai/ha (1×)): 0 plant
The grade of pesticide damage/plant: grade 2 ([1]; flumioxazin 60 g ai/ha (1×)): 2 plant
The grade of pesticide damage/plant: grade 3 ([1]; flumioxazin 60 g ai/ha (1×)): 22 plant
The grade of pesticide damage/plant: grade 0 ([1]; flumioxazin 240 g ai/ha (4×)): 0 plant
The grade of pesticide damage/plant: grade 1 ([1]; flumioxazin 240 g ai/ha (4×)): 0 plant
The grade of pesticide damage/plant: grade 2 ([1]; flumioxazin 240 g ai/ha (4×)): 0 plant
The grade of pesticide damage/plant: grade 3 ([1]; flumioxazin 240 g ai/ha (4×)): 24 plant
tolerance to flumioxazin ([1]; flumioxazin at different concentrations (60 and 240 g ai/ha)): basically no tolerance
The grade of pesticide damage/plant: grade 0 ([2]; oxyfluorfen 180 g ai/ha (1×)): 0 plant
The grade of pesticide damage/plant: grade 1 ([2]; oxyfluorfen 180 g ai/ha (1×)): 0 plant
The grade of pesticide damage/plant: grade 2 ([2]; oxyfluorfen 180 g ai/ha (1×)): 8 plant
The grade of pesticide damage/plant: grade 3 ([2]; oxyfluorfen 180 g ai/ha (1×)): 16 plant
The grade of pesticide damage/plant: grade 0 ([2]; oxyfluorfen 720 g ai/ha (4×)): 0 plant
The grade of pesticide damage/plant: grade 1 ([2]; oxyfluorfen 720 g ai/ha (4×)): 0 plant
The grade of pesticide damage/plant: grade 2 ([2]; oxyfluorfen 720 g ai/ha (4×)): 0 plant
The grade of pesticide damage/plant: grade 3 ([2]; oxyfluorfen 720 g ai/ha (4×)): 24 plant
tolerance to oxyfluorfen ([2]; oxyfluorfen at different concentrations (180 and 720 g ai/ha), compared with the control vector and CK): basically no tolerance

Reference: US20240200091A1, “USE OF PROTOPORPHYRINOGEN OXIDASE” (BEIJING DABEINONG BIOTECHNOLOGY CO., LTD., priority 2021, published 2024)
